Data taken from ChEMBL document CHEMBL4024706 (Eur J Med Chem, 2017).

Key:
[1] = target: Serine/threonine-protein kinase RIO3 (Homo sapiens) (UniProt O14730); assay: Inhibition of wild-type human full length RIOK3 (M1 to E519 residues) expressed in bacterial expression system assessed as residual activity at 1 uM by Kinomescan method relative to control
[2] = tested on: Pfeiffer; assay: Induction of apoptosis in human Pfeiffer cells assessed as induction of caspase-3 cleavage after 48 hrs by immunoblot; assay type: functional, cell-based
[3] = target: Serine/threonine-protein kinase 4 (Homo sapiens) (UniProt Q13043); assay: Inhibition of wild-type human full length MST1 (M1 to F487 residues) expressed in bacterial expression system assessed as residual activity at 1 uM by Kinomescan method relative to control
Chain of Serine/threonine-protein kinase 4 (Homo sapiens) (Q13043 whole entry, the tested form may be a part): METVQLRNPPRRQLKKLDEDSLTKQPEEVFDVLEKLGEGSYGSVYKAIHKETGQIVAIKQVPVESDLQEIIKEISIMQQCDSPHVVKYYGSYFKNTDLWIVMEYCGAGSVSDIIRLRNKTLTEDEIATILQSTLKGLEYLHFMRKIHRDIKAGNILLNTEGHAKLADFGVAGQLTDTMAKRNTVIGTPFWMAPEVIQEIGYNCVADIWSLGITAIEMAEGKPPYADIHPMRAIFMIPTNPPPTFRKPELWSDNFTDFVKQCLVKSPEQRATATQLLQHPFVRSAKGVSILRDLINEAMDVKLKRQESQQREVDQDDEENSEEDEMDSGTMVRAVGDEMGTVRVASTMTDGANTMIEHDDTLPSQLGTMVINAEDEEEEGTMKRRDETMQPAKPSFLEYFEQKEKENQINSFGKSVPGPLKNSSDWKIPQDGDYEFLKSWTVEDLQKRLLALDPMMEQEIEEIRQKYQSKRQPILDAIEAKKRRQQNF

[4] = target: Mitogen-activated protein kinase kinase kinase 3 (Homo sapiens) (UniProt Q99759); assay: Inhibition of wild-type human partial length MAP3K3 (E320 to Y626 residues) expressed in mammalian expression system assessed as residual activity at 1 uM by Kinomescan method relative to control
[5] = target: Calcium/calmodulin-dependent protein kinase type II subunit beta (Homo sapiens) (UniProt Q13554); assay: Inhibition of wild-type human partial length CAMK2B (M1 to Q380 residues) expressed in bacterial expression system assessed as residual activity at 1 uM by Kinomescan method relative to control
Chain of Calcium/calmodulin-dependent protein kinase type II subunit beta (Homo sapiens) (Q13554 whole entry, the tested form may be a part): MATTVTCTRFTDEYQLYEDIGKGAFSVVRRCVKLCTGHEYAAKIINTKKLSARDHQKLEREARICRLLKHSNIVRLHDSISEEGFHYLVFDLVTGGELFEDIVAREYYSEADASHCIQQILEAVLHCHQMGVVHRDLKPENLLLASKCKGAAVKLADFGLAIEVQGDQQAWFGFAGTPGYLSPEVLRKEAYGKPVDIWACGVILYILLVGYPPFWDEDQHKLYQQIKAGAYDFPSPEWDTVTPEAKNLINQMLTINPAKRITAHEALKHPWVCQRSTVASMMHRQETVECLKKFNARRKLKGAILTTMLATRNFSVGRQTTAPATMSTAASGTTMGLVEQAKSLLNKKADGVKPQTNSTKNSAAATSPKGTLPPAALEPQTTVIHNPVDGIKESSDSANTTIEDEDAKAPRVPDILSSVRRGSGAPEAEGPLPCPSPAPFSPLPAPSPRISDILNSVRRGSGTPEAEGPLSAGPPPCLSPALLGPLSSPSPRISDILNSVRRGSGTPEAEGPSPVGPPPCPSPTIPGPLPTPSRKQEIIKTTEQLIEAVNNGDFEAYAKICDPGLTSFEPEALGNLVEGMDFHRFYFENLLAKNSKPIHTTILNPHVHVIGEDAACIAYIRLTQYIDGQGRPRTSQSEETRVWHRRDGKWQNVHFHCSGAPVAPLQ

[6] = target: Serine/threonine-protein kinase Nek9 (Homo sapiens) (UniProt Q8TD19); assay: Inhibition of wild-type human partial length NEK9 (P32 to R328 residues) expressed in bacterial expression system assessed as residual activity at 1 uM by Kinomescan method relative to control
Chain of Serine/threonine-protein kinase Nek9 (Homo sapiens) (Q8TD19 whole entry, the tested form may be a part): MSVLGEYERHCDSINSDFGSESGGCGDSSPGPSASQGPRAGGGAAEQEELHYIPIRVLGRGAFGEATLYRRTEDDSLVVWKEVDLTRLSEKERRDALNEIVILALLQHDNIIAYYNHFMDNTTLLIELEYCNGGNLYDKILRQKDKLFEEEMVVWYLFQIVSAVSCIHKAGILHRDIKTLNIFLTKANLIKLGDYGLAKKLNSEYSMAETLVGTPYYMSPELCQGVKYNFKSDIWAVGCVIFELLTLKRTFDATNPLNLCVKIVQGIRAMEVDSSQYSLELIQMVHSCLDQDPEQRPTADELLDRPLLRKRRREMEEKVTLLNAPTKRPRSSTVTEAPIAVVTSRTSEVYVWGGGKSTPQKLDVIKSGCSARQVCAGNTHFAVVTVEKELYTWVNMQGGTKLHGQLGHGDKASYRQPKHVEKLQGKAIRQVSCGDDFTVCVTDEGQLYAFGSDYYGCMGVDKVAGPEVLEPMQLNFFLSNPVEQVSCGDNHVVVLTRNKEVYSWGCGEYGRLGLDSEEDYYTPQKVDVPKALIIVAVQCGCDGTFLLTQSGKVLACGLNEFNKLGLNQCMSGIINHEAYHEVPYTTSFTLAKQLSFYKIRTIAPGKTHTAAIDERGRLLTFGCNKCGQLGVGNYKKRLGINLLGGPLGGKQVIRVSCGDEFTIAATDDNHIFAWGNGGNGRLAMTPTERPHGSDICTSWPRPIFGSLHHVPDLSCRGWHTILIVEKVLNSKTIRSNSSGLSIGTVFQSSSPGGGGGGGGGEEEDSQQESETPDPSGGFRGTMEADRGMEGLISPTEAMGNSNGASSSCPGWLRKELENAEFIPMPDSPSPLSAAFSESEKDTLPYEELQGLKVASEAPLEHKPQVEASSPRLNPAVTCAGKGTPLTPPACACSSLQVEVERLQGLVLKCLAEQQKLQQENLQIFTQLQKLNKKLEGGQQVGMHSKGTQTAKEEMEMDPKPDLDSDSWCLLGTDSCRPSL

[7] = target: Serine/threonine-protein kinase PLK2 (Homo sapiens) (UniProt Q9NYY3); assay: Inhibition of wild-type human partial length PLK2 (H58 to F354 residues) expressed in mammalian expression system assessed as residual activity at 1 uM by Kinomescan method relative to control
Chain of Serine/threonine-protein kinase PLK2 (Homo sapiens) (Q9NYY3 whole entry, looked up, the tested form may be a part): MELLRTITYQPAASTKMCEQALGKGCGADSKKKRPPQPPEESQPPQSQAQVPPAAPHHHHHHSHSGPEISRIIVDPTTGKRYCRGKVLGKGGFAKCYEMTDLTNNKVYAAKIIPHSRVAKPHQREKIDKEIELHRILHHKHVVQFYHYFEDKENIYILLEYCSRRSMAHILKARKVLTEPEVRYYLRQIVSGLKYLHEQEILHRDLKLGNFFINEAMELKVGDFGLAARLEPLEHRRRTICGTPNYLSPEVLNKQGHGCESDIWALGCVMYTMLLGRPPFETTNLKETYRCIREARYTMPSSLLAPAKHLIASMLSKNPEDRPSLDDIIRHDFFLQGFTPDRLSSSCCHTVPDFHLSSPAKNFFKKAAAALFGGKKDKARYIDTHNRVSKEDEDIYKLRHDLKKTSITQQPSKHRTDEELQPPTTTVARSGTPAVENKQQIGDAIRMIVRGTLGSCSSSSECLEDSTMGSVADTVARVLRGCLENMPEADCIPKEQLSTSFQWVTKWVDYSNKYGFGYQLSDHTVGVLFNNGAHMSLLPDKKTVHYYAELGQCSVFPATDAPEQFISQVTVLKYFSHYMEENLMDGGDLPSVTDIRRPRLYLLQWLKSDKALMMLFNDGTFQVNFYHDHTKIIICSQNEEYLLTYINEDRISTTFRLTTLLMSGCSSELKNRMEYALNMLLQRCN

[8] = Tmax in Sprague-Dawley rat at 10 mg/kg, po by LC-MS/MS method; assay type: ADME, organism-based; details: in vivo
[9] = target: Tyrosine-protein kinase JAK1 (Homo sapiens) (UniProt P23458); assay: Inhibition of wild-type human partial length JAK1 JH2 pseudokinase domain (R537 to D855 residues) expressed in mammalian expression system assessed as residual activity at 1 uM by Kinomescan method relative to control
[10] = target: Serine/threonine-protein kinase LATS2 (Homo sapiens) (UniProt Q9NRM7); assay: Inhibition of wild-type human partial length LATS2 (Q641 to V1088 residues) expressed in mammalian expression system assessed as residual activity at 1 uM by Kinomescan method relative to control
Chain of Serine/threonine-protein kinase LATS2 (Homo sapiens) (Q9NRM7 whole entry, the tested form may be a part, canonical isoform): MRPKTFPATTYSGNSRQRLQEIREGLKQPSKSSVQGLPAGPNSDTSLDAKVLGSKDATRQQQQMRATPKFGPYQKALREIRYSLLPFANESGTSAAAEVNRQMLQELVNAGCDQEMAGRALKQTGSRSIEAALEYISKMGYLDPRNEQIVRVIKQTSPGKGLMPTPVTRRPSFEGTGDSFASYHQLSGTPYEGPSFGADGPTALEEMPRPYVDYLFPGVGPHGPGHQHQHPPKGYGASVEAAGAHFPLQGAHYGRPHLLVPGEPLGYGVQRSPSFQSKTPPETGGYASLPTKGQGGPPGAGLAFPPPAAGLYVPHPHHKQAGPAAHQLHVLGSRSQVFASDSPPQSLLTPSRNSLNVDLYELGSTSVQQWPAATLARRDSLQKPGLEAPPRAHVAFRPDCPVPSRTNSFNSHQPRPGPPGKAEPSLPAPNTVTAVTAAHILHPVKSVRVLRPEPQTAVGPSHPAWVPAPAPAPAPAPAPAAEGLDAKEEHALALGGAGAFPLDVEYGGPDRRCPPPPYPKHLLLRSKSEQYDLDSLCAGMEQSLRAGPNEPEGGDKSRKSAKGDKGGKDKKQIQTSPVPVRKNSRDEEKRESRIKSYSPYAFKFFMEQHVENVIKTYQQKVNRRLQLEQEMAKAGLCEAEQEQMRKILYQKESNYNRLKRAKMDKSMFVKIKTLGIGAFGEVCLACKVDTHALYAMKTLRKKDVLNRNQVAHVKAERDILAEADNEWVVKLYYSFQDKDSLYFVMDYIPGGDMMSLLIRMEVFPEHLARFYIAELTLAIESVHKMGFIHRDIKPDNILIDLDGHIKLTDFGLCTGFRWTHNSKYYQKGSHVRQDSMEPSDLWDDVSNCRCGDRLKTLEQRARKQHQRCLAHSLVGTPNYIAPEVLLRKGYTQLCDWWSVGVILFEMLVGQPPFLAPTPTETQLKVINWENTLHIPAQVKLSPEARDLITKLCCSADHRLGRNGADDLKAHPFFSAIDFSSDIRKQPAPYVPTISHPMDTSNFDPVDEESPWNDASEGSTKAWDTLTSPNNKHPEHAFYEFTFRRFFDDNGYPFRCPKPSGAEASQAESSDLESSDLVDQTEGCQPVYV

[11] = target: Phosphatidylinositol 4,5-bisphosphate 3-kinase catalytic subunit beta isoform (Homo sapiens) (UniProt P42338); assay: Inhibition of wild-type human partial length PIK3CB (P118 to S1070 residues) expressed in mammalian expression system assessed as residual activity at 1 uM by Kinomescan method relative to control
[12] = target: Mitogen-activated protein kinase 7 (Homo sapiens) (UniProt Q13164); assay: Inhibition of wild-type human partial length ERK5 (M1 to A409 residues) expressed in bacterial expression system assessed as residual activity at 1 uM by Kinomescan method relative to control
[13] = tested on: Phosphatidylinositol 4,5-bisphosphate 3-kinase catalytic subunit alpha isoform (Homo sapiens), P42336 [I800L]; assay: Inhibition of human partial length PIK3CA I800L mutant (R108 to N1068 residues) expressed in mammalian expression system assessed as residual activity at 1 uM by Kinomescan method relative to control
Chain of Phosphatidylinositol 4,5-bisphosphate 3-kinase catalytic subunit alpha isoform (Homo sapiens), P42336 [I800L] (P42336 whole entry I800L, the tested form may be a part, canonical isoform): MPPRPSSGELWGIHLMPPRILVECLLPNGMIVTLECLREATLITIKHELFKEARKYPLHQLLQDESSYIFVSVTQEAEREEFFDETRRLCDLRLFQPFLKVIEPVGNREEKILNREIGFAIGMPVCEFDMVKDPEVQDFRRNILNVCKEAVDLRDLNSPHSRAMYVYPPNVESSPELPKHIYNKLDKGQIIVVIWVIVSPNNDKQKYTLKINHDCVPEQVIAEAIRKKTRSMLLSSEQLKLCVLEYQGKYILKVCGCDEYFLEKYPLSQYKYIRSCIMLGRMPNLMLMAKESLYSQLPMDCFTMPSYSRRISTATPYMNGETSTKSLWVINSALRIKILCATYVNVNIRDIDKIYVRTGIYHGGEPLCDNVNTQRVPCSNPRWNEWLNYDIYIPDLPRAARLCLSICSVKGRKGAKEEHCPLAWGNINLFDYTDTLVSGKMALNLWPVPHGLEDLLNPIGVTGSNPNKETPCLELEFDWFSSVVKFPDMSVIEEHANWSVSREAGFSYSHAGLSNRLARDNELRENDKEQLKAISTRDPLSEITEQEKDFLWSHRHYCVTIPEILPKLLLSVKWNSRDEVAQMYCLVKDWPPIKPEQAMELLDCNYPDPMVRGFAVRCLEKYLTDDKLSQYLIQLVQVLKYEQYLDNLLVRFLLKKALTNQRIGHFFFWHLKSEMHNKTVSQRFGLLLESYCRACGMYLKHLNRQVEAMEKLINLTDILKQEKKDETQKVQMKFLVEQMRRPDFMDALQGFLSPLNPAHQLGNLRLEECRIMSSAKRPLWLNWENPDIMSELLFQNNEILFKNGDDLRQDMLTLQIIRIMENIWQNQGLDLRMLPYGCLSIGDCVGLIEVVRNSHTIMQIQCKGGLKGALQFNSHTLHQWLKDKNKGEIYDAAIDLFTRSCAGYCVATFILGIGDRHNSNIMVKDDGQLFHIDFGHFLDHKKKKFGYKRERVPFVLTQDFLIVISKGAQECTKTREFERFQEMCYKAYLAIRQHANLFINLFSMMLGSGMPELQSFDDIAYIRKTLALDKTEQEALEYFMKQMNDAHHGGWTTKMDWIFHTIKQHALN

[14] = Elimination half-life in Sprague-Dawley rat at 10 mg/kg, po by LC-MS/MS method; assay type: ADME, organism-based; details: in vivo, read-out: beta t1/2 (converted)

Question: With `C=CC(=O)Nc1cc(Nc2cc(-c3cccc(NC(=O)c4ccc(C(C)(C)C)cc4)c3C)cn(C)c2=O)ccc1C(=O)N1CCOCC1` as the compound, how does the Activity [1] read?
Answer: Its Activity is 78%.

Question: What about the Activity [2] of the same compound?
Answer: The Activity was “Dose-dependent effect”.

Question: And the Activity [3]?
Answer: Its Activity is 95%.

Question: And the Activity [4]?
Answer: Its Activity is 100%.

Question: And the Activity [5]?
Answer: The Activity was 100%.

Question: And the Activity [6]?
Answer: The Activity was 98%.

Question: And the Activity [7]?
Answer: The Activity was 100%.

Question: What about the Tmax [8] of the same compound?
Answer: Its Tmax is 30 min.

Question: What about the Activity [9] of the same compound?
Answer: The Activity was 86%.

Question: What about the Activity [10] of the same compound?
Answer: Its Activity is 100%.

Question: What about the Activity [11] of the same compound?
Answer: The Activity was 100%.

Question: What about the Activity [12] of the same compound?
Answer: Its Activity is 99%.

Question: And the Activity [13]?
Answer: The Activity was 100%.

Question: And the half-life [14]?
Answer: The half-life was 79.8 min.
